Literature values as cited in patent US10716758B2, “Liposomal statin formulation” (Southwest Research Institute, priority 2018, dated 2020).

How the values were obtained:
[1] = test system: scar, rabbit ear model; conditions: relatively low doses (40 μM)
[2] = 20° C. to 25° C.

| SMILES | scar elevation index vs control [1] | solubility in water (in words) [2] |
| --- | --- | --- |
| CC[C@H](C)C(=O)O[C@H]1C[C@@H](C)C=C2C=C[C@H](C)[C@H](CC[C@@H]3C[C@@H](O)CC(=O)O3)[C@H]21 [lovastatin] | reduction in the scar elevation index |  |
| CC[C@H](C)C(=O)O[C@H]1C[C@H](O)C=C2C=C[C@H](C)[C@H](CC[C@@H](O)C[C@@H](O)CC(=O)O)[C@H]21 [pravastatin] |  | soluble in water |
